US7074743B1, “Herbicidal composition comprising 4-iodo-2-[3-(4-methoxy-6-methyl-1,3,5-triazin-2-yl)ureidosulfonyl]benzoic esters” (priority 1995, dated 2006)

Assays:
Type in all cases: in vivo
[1] = system: Triticum aestivum; experiment: Damage to crop plant TRZAW, visual scoring vs untreated
Procedure: (§1) The examples given below were performed in the greenhouse and, in some cases, in field trials.
(§2) The herbicides, or combinations, were applied in cereals after the weeds had emerged naturally using plot sprayers. After application, the results, such as damage to the crop plants and effect on broad-leaved weeds/grass weeds were assessed by means of visual scoring. The herbicidal action was assessed qualitatively and quantitatively by comparing untreated and treated plots on the basis of the effect on plant growth and the development of chloroses and necroses down to the complete destruction of the weeds (0–100%). The application was effected when the crop plants and weeds were in the 2–4 leaf stage. The test was evaluated approximately 4 weeks after application.
(§3) In the greenhouse experiments, the crop plants and broadleaved weeds/grass weeds were grown in No. 13 pots and treated in the 2–4 leaf stage. The pots were subsequently placed in the greenhouse under good growth conditions (temperature, atmospheric humidity, water supply).
(§4) The assessments were carried out similarly to those in the field trials, i.e. visual scoring of the treated plants in comparison with untreated control variants. These assessments were carried out 3 weeks after applying the test preparations and their combinations. The experiments had been set up in two replications.

[2] = system: Gallium aparine; experiment: Herbicidal action on GALAP, visual scoring vs untreated, post-emergence 2-4 leaf stage; details: Table 7
Procedure: as §1, §2, §3, §4
(§5) To assess the combination effects, the activities of the individual components were added and compared with the activity of the mixtures in equal doses. It was frequently observed that the efficacies of the combinations exceeded the total of the individual activities.
(§6) In cases with less clear effects, the expected value was calculated using Colby's formula and compared with the empirically determined result. The calculated efficacy of a combination which is expected in theory is determined is using S.R. Colby's formula: “Calculation of synergistic and antagonistic responses of herbicide combinations”, Weeds 15 (1967), pages 20 to 22.
(§7) [formula] where • X=% damage caused by herbicide A at a rate of ×kg a.i./ha; • Y=% damage caused by herbicide B at a rate of y kg a.i./ha; • Z=% damage caused by a further herbicide C at a rate of z kg a.i./ha; • E=expected value, i.e. expected damage caused by herbicides A+B (or A+B+C) at x+y (or x+y+z) kg a.i./ha.
(§8) Synergistic effects were assumed to be when the empirical value exceeded the expected value. In the case of combinations with individual components with the same active substances, comparisons via the total formula were also possible.

[3] = system: Viola arvensis; experiment: Herbicidal action on VIOAR, visual scoring vs untreated, post-emergence 2-4 leaf stage; details: Table 7
Procedure: as §1, §2, §3, §4, §5, §6, §7, §8

[4] = system: Zea mays; experiment: Damage to crop plant ZEAMA, visual scoring vs untreated
Procedure: as §1, §2, §3, §4

[5] = system: Abuthilon theophrastis; experiment: Herbicidal action on ABUTHE, visual scoring vs untreated, post-emergence 2-4 leaf stage; details: Table 12; 4.5 g of ai/ha
Procedure: as §1, §2
(§9) In the greenhouse experiments, the crop plants and broadleaved weeds/grass weeds were grown in No. 13 pots and treated in the 2–4 leaf stage. […]
(§10) In cases with less clear effects, the expected value was calculated using Colby's formula and compared with the empirically determined result. The calculated efficacy of a combination which is expected in theory is determined is using S.R. Colby's formula: “Calculation of synergistic and antagonistic responses of herbicide combinations”, Weeds 15 (1967), pages 20 to 22. […]

[6] = system: Ambrosia elatior; experiment: Herbicidal action on AMBEL, visual scoring vs untreated, post-emergence 2-4 leaf stage; details: Table 12; 4.5 g of ai/ha
Procedure: as §1, §2, §9, §10

[7] = system: Echinochloa crus galli; experiment: Herbicidal action on ECHCR, visual scoring vs untreated, post-emergence 2-4 leaf stage; details: Table 8
Procedure: as §1, §2, §3, §4, §5, §6, §7, §8

[8] = system: Centaurea cyanus; experiment: Herbicidal action on CENCY, visual scoring vs untreated, post-emergence 2-4 leaf stage
Procedure: as §1, §2, §3, §4, §5, §6, §7, §8

[9] = system: Secale cereale; experiment: Damage to crop plant SECCW, visual scoring vs untreated; details: Table 10; 20 g of a.i./ha
Procedure: as §1, §2, §3, §4

[10] = system: Fallopia convolvulus; experiment: Herbicidal action on FALCO, visual scoring vs untreated, post-emergence 2-4 leaf stage; details: Table 9
Procedure: as §1, §2, §3, §4, §5, §6, §7, §8

[11] = system: Phalaris canariensis; experiment: Herbicidal action on PHACA, visual scoring vs untreated, post-emergence 2-4 leaf stage (greenhouse / field trials); details: Table 3
Procedure: as §1, §2, §3, §4, §5, §6, §7, §8

[12] = system: Lolium multiflorum; experiment: Herbicidal action on LOLMU, visual scoring vs untreated, post-emergence 2-4 leaf stage; details: Table 3
Procedure: as §1, §2, §3, §4, §5, §6, §7, §8

N#Cc1cc(I)c(O)c(I)c1 [B22), 4-hydroxy-3,5-di-iodobenzonitrile]
TRZAW % damage ([1]; in vivo): 0% | GALAP % control ([2]; 62.5 g of a.i./ha): 0% | GALAP % control ([2]; 125 g of a.i./ha): 3% | GALAP % control ([2]; 250 g of a.i./ha): 10% | GALAP % control ([2]; 500 g of a.i./ha): 18%

CCOC(=O)COC(=O)c1cc(Oc2ccc(C(F)(F)F)cc2Cl)ccc1[N+](=O)[O-] [B25), fluoroglycofen-ethyl]
TRZAW % damage ([1]; in vivo): 0% | VIOAR % control ([3]; 4 g of a.i./ha): 3% | VIOAR % control ([3]; 8 g of a.i./ha): 18% | VIOAR % control ([3]; 15 g of a.i./ha): 38% | VIOAR % control ([3]; 30 g of a.i./ha): 62%

CCOC(=O)C(Cl)Cc1cc(-n2nc(C)n(C(F)F)c2=O)c(F)cc1Cl (stereo not drawn) [B31), carfentrazone-ethyl]
ZEAMA % damage ([4]; Table 12, 4.5 g of ai/ha): 5% | ABUTHE % control [5]: 60% | AMBEL % control [6]: 0%

O=C(Nc1ccc(F)cc1F)c1cccnc1Oc1cccc(C(F)(F)F)c1 [B32), 2′ 4′-difluoro-2-(α,α,α-trifluoro-m-tolyloxy)nicotinanilide]
TRZAW % damage ([1]; Table 7, 13 g of a.i./ha): 0% | TRZAW % damage ([1]; Table 7, 25 g of a.i./ha): 0% | TRZAW % damage ([1]; Table 7, 50 g of a.i./ha): 0% | TRZAW % damage ([1]; Table 7, 100 g of a.i./ha): 0% | GALAP % control ([2]; 13 g of a.i./ha): 0% | GALAP % control ([2]; 25 g of a.i./ha): 0% | GALAP % control ([2]; 50 g of a.i./ha): 5% | GALAP % control ([2]; 100 g of a.i./ha): 5%

CCNc1nc(Cl)nc(NC(C)C)n1 [B36), 6-chloro-N-^2-ethyl-N-4-isopropyl-1,3,5-triazine-2,4-diamine]
ECHCR % control ([7]; 375 g of a.i./ha): 0% | ECHCR % control ([7]; 750 g of a.i./ha): 0% | ECHCR % control ([7]; 1500 g of a.i./ha): 3% | ECHCR % control ([7]; 3000 g of a.i./ha): 3% | ZEAMA % damage ([4]; Table 8, 375 g of a.i./ha): 0% | ZEAMA % damage ([4]; Table 8, 750 g of a.i./ha): 0% | ZEAMA % damage ([4]; Table 8, 1500 g of a.i./ha): 0% | ZEAMA % damage ([4]; Table 8, 3000 g of a.i./ha): 0%

COc1cc(OC)nc(NC(=O)NS(=O)(=O)N(C)S(C)(=O)=O)n1 [B40), 1-(4,6-dimethoxypyrimidin-2-yl)-3-mesyl (methyl)-sulfamoylurea]
CENCY % control ([8]; Table 10, 20 g of a.i./ha): 25% | SECCW % damage [9]: 0%

COC(=O)c1ccccc1S(=O)(=O)NC(=O)Nc1nc(C)nc(OC)n1 [B41), metsulfuron-methyl]
TRZAW % damage ([1]; Triticum aestivum, in vivo): 0% | TRZAW % damage ([1]; in vivo): 0% | CENCY % control ([8]; Table 9, 1 g of a.i./ha): 0% | CENCY % control ([8]; Table 9, 3 g of a.i./ha): 0% | CENCY % control ([8]; Table 9, 5 g of a.i./ha): 0% | CENCY % control ([8]; Table 9, 10 g of a.i./ha): 0%

COC(=O)c1ccccc1S(=O)(=O)NC(=O)N(C)c1nc(C)nc(OC)n1 [B42), tribenuron-methyl]
TRZAW % damage ([1]; Triticum aestivum, in vivo): 0% | FALCO % control ([10]; 5 g of a.i./ha): 88% | FALCO % control ([10]; 10 g of a.i./ha): 93% | FALCO % control ([10]; 20 g of a.i./ha): 95% | FALCO % control ([10]; 40 g of a.i./ha): 97%

imazamethabenz-methyl [B8)]
PHACA % control ([11]; 375 g of a.i./ha): 0% | PHACA % control ([11]; 750 g of a.i./ha): 0% | PHACA % control ([11]; 1500 g of a.i./ha): 13% | LOLMU % control ([12]; 375 g of a.i./ha): 0% | LOLMU % control ([12]; 750 g of a.i./ha): 0% | LOLMU % control ([12]; 1500 g of a.i./ha): 20%
